Common to all, as to type: functional
Test [1] concerns the target T1, Mitogen-activated protein kinase (Plasmodium falciparum, UniProt Q25917).
T1 sequence (Q25917 whole entry): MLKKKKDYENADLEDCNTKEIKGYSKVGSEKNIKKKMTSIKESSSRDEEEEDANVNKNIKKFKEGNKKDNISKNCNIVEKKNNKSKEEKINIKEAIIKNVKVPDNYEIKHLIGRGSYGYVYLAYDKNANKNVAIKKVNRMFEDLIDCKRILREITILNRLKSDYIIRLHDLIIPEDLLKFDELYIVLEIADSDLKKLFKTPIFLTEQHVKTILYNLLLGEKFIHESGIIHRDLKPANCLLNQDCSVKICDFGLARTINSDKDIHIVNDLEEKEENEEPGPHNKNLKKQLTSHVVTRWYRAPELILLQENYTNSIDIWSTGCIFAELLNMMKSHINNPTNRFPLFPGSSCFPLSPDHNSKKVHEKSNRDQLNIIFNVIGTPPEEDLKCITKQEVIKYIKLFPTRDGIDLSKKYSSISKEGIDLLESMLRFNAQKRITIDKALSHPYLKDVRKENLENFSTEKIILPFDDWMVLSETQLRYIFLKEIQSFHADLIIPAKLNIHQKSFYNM
Put plainly: Final concentrations were 1 uM ATP, 0.5 mM DTT, 1 mM MgCl2, 0.5 mg/mL BSA, and 10 ug/ml MAP2 in a buffer of 50 mM HEPES (pH 7.0). 0.5 mg/mL histone III-S served as the substrate (13); 100 uM AMP-PNP, an ATP analog, was used as a control inhibitor. Incubation time was 4 hours.

Test [2] has as its target Lysine--tRNA ligase (Plasmodium falciparum (isolate 3D7), UniProt Q8IDJ8). Put plainly: MMV: KRS recombinant Plasmodium falciparum Lysyl-tRNA-synthetase, assay with yeast tRNA, ATP, and lysine and 3 uM MMV malaria box compound, assay read out with kinase glo as % inhibition. (In general: In Kinase-Glo more light means more ATP remaining.)
Test [3] addresses Calcium-dependent protein kinase 1 (Plasmodium falciparum, UniProt P62344). In words: MMV: CDPK1 Protein kinase inhibition assay using recombinant PfCDPK1, syntide 2 peptide substrate, ATP and KinaseGlo to measure % inhibition at 1 uM MMV box compound.
For test [4], the target named is T2, Calcium-dependent protein kinase 4 (Plasmodium falciparum (isolate 3D7), UniProt Q8IBS5).
T2 sequence (Q8IBS5 whole entry): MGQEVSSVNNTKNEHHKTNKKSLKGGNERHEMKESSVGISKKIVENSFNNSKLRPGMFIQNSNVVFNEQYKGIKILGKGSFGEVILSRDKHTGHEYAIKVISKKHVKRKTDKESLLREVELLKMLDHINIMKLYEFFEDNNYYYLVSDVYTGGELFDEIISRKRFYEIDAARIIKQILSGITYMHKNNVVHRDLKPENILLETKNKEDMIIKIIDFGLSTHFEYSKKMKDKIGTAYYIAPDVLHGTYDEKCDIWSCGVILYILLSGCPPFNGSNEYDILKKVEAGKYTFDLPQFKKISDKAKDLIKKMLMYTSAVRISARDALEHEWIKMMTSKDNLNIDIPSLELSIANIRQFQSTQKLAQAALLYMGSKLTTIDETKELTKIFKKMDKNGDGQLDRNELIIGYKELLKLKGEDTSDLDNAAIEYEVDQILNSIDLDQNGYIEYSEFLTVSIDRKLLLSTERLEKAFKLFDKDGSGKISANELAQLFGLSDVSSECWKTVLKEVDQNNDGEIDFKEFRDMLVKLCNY
Put plainly: MMV: CDPK4 Protein kinase inhibition assay using recombinant PfCDPK4, syntide2 peptide substrate, ATP and KinaseGlo to measure % inhibition at 1 uM MMV box compound.

Test [5] deals with T3, Putative uncharacterized protein pk7 (Plasmodium falciparum, UniProt O96214).
T3 sequence (O96214 whole entry): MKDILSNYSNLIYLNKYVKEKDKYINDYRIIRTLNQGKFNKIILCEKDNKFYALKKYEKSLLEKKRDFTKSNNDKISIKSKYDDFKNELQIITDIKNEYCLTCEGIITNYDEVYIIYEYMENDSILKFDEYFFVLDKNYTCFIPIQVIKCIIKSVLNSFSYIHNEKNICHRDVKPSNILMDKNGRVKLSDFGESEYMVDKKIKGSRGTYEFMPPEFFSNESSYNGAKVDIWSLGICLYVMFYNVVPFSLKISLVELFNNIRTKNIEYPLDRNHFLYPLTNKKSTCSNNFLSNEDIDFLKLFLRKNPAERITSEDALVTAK
Put plainly: Final concentrations were 1 uM ATP, 2 mM DTT, 20 mM MgCl2, 2 mM MnCl2, 0.01% BSA, and 6 ug/ml PK7, in a buffer of 20 mM Tris-HCl (pH 7.5). The enzyme itself was the only substrate present (since autophosphorylation occurs); 100 uM 1NA-PP1 was used as a control inhibitor. Incubation time was 3 hours.

For test [6], the target named is T4, Proline--tRNA ligase (Plasmodium falciparum (isolate 3D7), UniProt Q8I5R7).
T4 sequence (Q8I5R7 whole entry): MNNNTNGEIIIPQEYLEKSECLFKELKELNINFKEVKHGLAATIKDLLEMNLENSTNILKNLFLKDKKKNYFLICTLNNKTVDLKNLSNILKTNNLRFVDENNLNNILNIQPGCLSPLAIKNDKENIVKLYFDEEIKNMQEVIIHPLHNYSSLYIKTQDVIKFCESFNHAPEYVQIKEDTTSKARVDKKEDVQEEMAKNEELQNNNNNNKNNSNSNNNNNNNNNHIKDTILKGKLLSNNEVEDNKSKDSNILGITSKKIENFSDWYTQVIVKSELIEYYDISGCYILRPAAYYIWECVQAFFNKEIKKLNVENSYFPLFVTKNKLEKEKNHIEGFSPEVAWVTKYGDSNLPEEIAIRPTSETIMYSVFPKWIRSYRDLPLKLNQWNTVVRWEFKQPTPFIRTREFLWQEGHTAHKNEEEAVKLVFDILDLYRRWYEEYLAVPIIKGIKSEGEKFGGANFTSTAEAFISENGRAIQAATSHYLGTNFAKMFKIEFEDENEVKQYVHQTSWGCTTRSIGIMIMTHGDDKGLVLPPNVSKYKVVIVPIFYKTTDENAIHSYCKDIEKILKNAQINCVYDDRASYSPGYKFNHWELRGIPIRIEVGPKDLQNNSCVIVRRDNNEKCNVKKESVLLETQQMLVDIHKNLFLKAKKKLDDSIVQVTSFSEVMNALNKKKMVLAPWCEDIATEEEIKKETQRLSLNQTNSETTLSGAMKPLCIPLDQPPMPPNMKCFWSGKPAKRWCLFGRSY
In words: MMV: ProRS recombinant Plasmodium falciparum Prolyl-tRNA-synthetase, assay with yeast tRNA, ATP, and proline and 3 uM MMV malaria box compound, assay read out with kinase glo as % inhibition.

In test [7] the target is T5, Cdk-related protein kinase 6 (Plasmodium falciparum, UniProt O77239).
T5 sequence (O77239 whole entry): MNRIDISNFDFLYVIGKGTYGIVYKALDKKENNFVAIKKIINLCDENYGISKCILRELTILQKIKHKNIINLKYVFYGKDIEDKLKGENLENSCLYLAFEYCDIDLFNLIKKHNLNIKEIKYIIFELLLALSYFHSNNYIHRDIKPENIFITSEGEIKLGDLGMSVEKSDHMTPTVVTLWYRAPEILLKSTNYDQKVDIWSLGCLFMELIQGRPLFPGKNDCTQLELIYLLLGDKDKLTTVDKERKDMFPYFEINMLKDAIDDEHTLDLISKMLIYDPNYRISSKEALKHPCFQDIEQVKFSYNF
Put plainly: Final concentrations were 1.5 uM ATP, 5 mM MnCl2, and 15 ug/ml PK6 in a buffer of 100 mM Tris-HCl (pH 7.5). 50 ug/mL MBP was provided as the substrate; 10 uM staurosporine was used as a control inhibitor. Incubation time was 3 hours and 40 minutes.The catalytic activity of each kinase was considered proportional to ATP consumed, as determined from measurements of residual [ATP] with the luciferase-based reagent Kinase-Glo (Promega) following incubation. Luminescence (proportional to residual [ATP]) was measured on the plate readers FLx800 (BioTek Instruments, Winooski, VT, USA) and MicroBeta2.

SMILES strings stand for the structures.

Sequence of Calcium-dependent protein kinase 1 (P62344 whole entry): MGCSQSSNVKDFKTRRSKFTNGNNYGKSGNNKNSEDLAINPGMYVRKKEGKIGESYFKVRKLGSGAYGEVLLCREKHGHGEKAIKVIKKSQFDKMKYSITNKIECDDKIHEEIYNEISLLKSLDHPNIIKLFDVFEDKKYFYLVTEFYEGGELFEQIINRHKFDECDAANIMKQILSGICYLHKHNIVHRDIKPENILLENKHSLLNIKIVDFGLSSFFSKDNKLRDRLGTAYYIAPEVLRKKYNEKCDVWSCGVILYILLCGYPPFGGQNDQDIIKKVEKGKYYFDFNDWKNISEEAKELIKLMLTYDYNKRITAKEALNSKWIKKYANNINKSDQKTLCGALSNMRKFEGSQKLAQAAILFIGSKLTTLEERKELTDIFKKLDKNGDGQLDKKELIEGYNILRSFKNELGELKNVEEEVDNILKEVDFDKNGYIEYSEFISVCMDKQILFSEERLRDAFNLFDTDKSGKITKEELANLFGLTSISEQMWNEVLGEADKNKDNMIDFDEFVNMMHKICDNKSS
Sequence of Lysine--tRNA ligase (Q8IDJ8 whole entry): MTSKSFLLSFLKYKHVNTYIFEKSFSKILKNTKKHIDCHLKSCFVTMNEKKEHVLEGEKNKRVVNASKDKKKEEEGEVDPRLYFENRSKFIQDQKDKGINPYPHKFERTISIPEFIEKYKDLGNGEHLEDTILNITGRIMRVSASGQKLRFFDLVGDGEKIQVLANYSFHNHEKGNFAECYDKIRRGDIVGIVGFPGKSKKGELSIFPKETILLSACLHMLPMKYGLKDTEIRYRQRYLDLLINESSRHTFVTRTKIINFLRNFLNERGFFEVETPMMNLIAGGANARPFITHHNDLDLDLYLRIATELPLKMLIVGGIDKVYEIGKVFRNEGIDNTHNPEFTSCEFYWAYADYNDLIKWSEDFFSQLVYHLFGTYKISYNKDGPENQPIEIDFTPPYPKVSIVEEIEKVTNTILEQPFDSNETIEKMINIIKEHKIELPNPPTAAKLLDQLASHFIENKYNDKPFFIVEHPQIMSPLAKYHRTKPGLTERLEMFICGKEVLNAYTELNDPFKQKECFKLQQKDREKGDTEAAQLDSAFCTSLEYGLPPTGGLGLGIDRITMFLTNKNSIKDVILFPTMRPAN

Turning to `COc1cccc(Cn2c(Oc3ccccc3)nc3c2c(=O)n(C)c(=O)n3C)c1`, the IC50 – broadly, the concentration that inhibits the measured activity by half – is more than 1000 nM in test [1]; more than 2500 nM in test [2]; more than 1000 nM in test [3]; more than 1000 nM in test [4]; more than 1000 nM in test [5]; more than 2500 nM in test [6]. In test [7], this compound came in with an IC50 of more than 1000 nM.
On to `CCOc1ccccc1CN1CCc2nc3cc(C(C)(C)C)nn3c(O)c2C1`, for which the IC50 was more than 1000 nM in test [1]; more than 2500 nM in test [2]; more than 1000 nM in test [3]; more than 1000 nM in test [4]; more than 1000 nM in test [5]; more than 2500 nM in test [6]. The compound further registered an IC50 in test [7] of more than 1000 nM.
In the case of `Cc1cc(N2CCCC2)nc(Nc2ccc(NC(=O)CCc3ccccc3)cc2)n1`, the IC50 in test [1] is more than 1000 nM; in test [2], more than 2500 nM; in test [3] it was more than 1000 nM; in test [4], more than 1000 nM; in test [5], more than 1000 nM; in test [6] it was more than 2500 nM. The compound further yielded an IC50 in test [7] of more than 1000 nM.
As for `CN1CCN(c2ncnc3c2[nH]c2ccc(Cl)cc23)CC1`, the IC50 in test [1] is more than 1000 nM; in test [2], more than 2500 nM; in test [3] it was more than 1000 nM; in test [4], more than 1000 nM; in test [5], more than 1000 nM; in test [6], more than 2500 nM. For the same compound, the IC50 in test [7] is more than 1000 nM.
In the case of `CN(C)CCNc1cc(-c2ccccc2)nc2ccccc12`, the IC50 in test [1] was more than 1000 nM; in test [2], more than 2500 nM; in test [3] it was more than 1000 nM; in test [4], more than 1000 nM; in test [5], more than 1000 nM; in test [6] it was more than 2500 nM. This compound also registered an IC50 in test [7] of more than 1000 nM.
With `COc1ccc2nc(C)cc(Nc3cccc(O)c3)c2c1`, the IC50 in test [1] is more than 1000 nM; in test [2] it was more than 2500 nM; in test [3], more than 1000 nM; in test [4], more than 1000 nM; in test [5], more than 1000 nM; in test [6], more than 2500 nM. For the same compound, in test [7], the IC50 was more than 1000 nM.
For `CN(C)CCCNCc1ccc(-c2ccc(F)c(Cl)c2)o1`, the IC50 is more than 1000 nM in test [1]; more than 2500 nM in test [2]; more than 1000 nM in test [3]; more than 1000 nM in test [4]; more than 1000 nM in test [5]; more than 2500 nM in test [6]. In test [7], this compound returned an IC50 of more than 1000 nM.
With `CCC(=O)Nc1nnc(Cc2ccc(OC)c(OC)c2)s1`, the IC50 in test [1] was more than 1000 nM; in test [2] it was more than 2500 nM; in test [3] it was more than 1000 nM; in test [4], more than 1000 nM; in test [5], more than 1000 nM; in test [6] it was more than 2500 nM. The compound further yielded an IC50 in test [7] of more than 1000 nM.
Consider `COc1cccc(C(=O)Nc2ccc(-c3nc4ccccc4[nH]3)cc2)c1`, for which the IC50 is more than 1000 nM in test [1]; more than 2500 nM in test [2]; more than 1000 nM in test [3]; more than 1000 nM in test [4]; more than 1000 nM in test [5]; more than 2500 nM in test [6]. The same compound displayed an IC50 in test [7] of more than 1000 nM.
`CCOc1ccccc1NC(=O)CN1CCN(C(=O)c2ccco2)CC1`: the IC50 in test [1] was more than 1000 nM; in test [2], more than 2500 nM; in test [3], more than 1000 nM; in test [4], more than 1000 nM; in test [5] it was more than 1000 nM; in test [6], more than 2500 nM. Further, in test [7], the concentration for half-maximal inhibition (IC50) is more than 1000 nM.
In the case of `Oc1ccc(Br)cc1CN1CCN(Cc2cccc(F)c2)CC1`, the IC50 in test [1] is more than 1000 nM; in test [2] it was more than 2500 nM; in test [3] it was more than 1000 nM; in test [4], more than 1000 nM; in test [5] it was more than 1000 nM; in test [6], more than 2500 nM. In addition, the IC50 in test [7] is more than 1000 nM.
For the compound `Oc1c(CN2CCN(c3ccccc3F)CC2)cc(Br)c2cccnc12`, the IC50 in test [1] was more than 1000 nM; in test [2] it was more than 2500 nM; in test [3], more than 1000 nM; in test [4], more than 1000 nM; in test [5], more than 1000 nM; in test [6], more than 2500 nM. The compound further yielded an IC50 in test [7] of more than 1000 nM.
As to `Clc1ccc2c(N3CCCC3)ccnc2c1`, the IC50 is more than 1000 nM in test [1]; more than 2500 nM in test [2]; more than 1000 nM in test [3]; more than 1000 nM in test [4]; more than 1000 nM in test [5]; more than 2500 nM in test [6]. For the same compound, the IC50 in test [7] was more than 1000 nM.
Take `O=c1c2c([nH]c3ccccc13)CCCC2`: the IC50 in test [1] is more than 1000 nM; in test [2] it was more than 2500 nM; in test [3], more than 1000 nM; in test [4], more than 1000 nM; in test [5] it was more than 1000 nM; in test [6], more than 2500 nM. The compound also showed an IC50 in test [7] of more than 1000 nM.
On to `CCCCN(CCCC)S(=O)(=O)c1ccc(NC(=O)c2ccco2)cc1`, for which the half-maximal inhibitory concentration (IC50) in test [1] was more than 1000 nM; in test [2], more than 2500 nM; in test [3] it was more than 1000 nM; in test [4], more than 1000 nM; in test [5] it was more than 1000 nM; in test [6] it was more than 2500 nM. This compound came in with an IC50 in test [7] of more than 1000 nM.

For the origin of these results see ChEMBL document CHEMBL3301562, “MMV Box screening against Plasmodium falciparum protein kinases and aminoacyl tRNA synthetases”.
